Structures are written as SMILES.

One assay deals with T1, miRFP709 (Rhodopseudomonas palustris, UniProt A0A161I5N6).
T1 construct: engineered monomeric PAS-GAF fragment derived from RpBphP1; Cys in PAS only, none in GAF; about 35 kDa; N-terminal polyhistidine tag; apoprotein expressed in E. coli LMG194 without heme oxygenase
Briefly: time-resolved absorption and stimulated Raman spectroscopy. Format: binding. The note with it: covalent; thioether to Cys in PAS; pH 8.0, 20 mM Tris-HCl, 150 mM NaCl, DTT. The text has this: time-resolved absorption and stimulated Raman spectroscopy on miRFP709 | We assign the 18-min reaction to the covalent bond formation to Cys in the PAS

In another assay the target is T2, miRFP670 (Rhodopseudomonas palustris, UniProt A0A161I5N6, D200T/I252C, form not given).
T2 construct: engineered monomeric PAS-GAF fragment derived from RpBphP1; Cys20 (PAS) and Cys253 (GAF); about 35 kDa; N-terminal polyhistidine tag; apoprotein expressed in E. coli LMG194 without heme oxygenase
T2 sequence (A0A161I5N6 1-314 D200T/I252C limits assumed): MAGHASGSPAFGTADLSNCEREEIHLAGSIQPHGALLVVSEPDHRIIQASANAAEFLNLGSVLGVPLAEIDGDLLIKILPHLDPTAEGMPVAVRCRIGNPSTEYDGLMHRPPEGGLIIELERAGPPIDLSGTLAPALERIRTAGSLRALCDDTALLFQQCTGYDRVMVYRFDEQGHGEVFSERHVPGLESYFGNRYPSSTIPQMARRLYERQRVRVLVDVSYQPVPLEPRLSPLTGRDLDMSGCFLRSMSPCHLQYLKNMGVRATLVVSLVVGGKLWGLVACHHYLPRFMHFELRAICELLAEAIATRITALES
Description: time-resolved absorption and stimulated Raman spectroscopy, SDS-PAGE. Format: binding. The note with it: covalent; Cys253 GAF thioether, then a second thioether to Cys20 PAS; pH 8.0, 20 mM Tris-HCl, 150 mM NaCl, DTT.

T1 sequence (A0A161I5N6 1-314 limits assumed): as the sequence (A0A161I5N6 1-314 D200T/I252C limits assumed) above, with T200D, C252I counted along it

`C=CC1=C(C)C(=Cc2[nH]c(C=C3N=C(C=C4NC(=O)C(C)=C4C=C)C(C)=C3CCC(=O)O)c(CCC(=O)O)c2C)NC1=O` [biliverdin]: on miRFP709, the “time constant of C-S bond formation (Cys in PAS)” value is recorded as 18 min. Moreover, the “time constant of C-S bond formation (Cys in GAF)” value on miRFP670 is listed as 4.3 min.

The values above are taken from publication PMC8570541, “Real-time observation of tetrapyrrole binding to an engineered bacterial phytochrome” (Communications Chemistry, 2021).
